Measured values published in ChEMBL document CHEMBL1140103, “Synthesis and evaluation of [N-methyl-11C]N-desmethyl-loperamide as a new and improved PET radiotracer for imaging P-gp function” (J Med Chem, 2008).

What was measured:
[1] = Lipophilicity, log D of the compound; format: physicochemical; conditions: octanol/water
[2] = Dissociation constant, pKa of the compound; format: physicochemical
Histamine H2 receptor = Histamine H2 receptor (Homo sapiens, UniProt P25021); test: Displacement of [3H]tiotidine from human histamine H2 receptor
[3] = molecular target: T1, Alpha-1A adrenergic receptor (Homo sapiens, UniProt P35348); test: Displacement of [125I]HEAT from adrenergic alpha1A receptor
T1 sequence (P35348 whole entry): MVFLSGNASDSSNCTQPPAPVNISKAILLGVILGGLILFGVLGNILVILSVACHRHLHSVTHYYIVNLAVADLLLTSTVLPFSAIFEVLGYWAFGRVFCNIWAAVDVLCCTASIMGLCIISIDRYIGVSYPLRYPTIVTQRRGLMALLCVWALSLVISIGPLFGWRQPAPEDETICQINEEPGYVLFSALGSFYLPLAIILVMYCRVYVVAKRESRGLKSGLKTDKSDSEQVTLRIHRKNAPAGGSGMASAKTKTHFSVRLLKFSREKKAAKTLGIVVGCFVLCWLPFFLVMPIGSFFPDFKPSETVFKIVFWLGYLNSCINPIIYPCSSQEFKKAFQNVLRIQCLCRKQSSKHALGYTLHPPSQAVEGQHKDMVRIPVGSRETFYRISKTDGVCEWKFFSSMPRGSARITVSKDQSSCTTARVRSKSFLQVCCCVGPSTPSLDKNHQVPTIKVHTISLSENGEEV

Mu-type opioid receptor = Mu-type opioid receptor (Homo sapiens, UniProt P35372); test: Displacement of [3H]DAMGO from mu opioid receptor
Histamine H1 receptor = Histamine H1 receptor (Homo sapiens, UniProt P35367); test: Displacement of [3H]pyrilamine from human histamine H1 receptor
D(4) dopamine receptor = molecular target: T2, D(4) dopamine receptor (Homo sapiens, UniProt P21917); test: Displacement of [3H]N-methylspiperone from dopamine D4 receptor
T2 sequence (P21917 whole entry): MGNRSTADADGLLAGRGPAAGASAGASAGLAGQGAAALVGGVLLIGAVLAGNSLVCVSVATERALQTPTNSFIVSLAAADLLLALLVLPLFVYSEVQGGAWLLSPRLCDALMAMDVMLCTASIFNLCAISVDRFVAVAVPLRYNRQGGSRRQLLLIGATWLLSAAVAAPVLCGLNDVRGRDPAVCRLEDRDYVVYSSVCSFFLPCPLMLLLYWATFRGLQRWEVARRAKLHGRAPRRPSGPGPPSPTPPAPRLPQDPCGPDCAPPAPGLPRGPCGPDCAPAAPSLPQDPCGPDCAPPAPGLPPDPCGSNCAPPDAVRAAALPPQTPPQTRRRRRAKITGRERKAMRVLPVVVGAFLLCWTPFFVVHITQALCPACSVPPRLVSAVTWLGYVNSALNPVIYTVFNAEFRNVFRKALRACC

Histamine H3 receptor = Histamine H3 receptor (Homo sapiens, UniProt Q9Y5N1); test: Displacement of [3H]alpha-methylhistamine from human histamine H3 receptor
[4] = Displacement of [3H]DTG from rat sigma 2 receptor in rat PC12 cells; format: cell-based; conditions: pc-12
[5] = molecular target: Sigma non-opioid intracellular receptor 1 (Rattus norvegicus, UniProt Q9R0C9); test: Displacement of [3H]Pentazocine from rat sigma 1 receptor in rat PC12 cells; format: cell-based, PC-12
[6] = molecular target: Sodium-dependent serotonin transporter (Homo sapiens, UniProt P31645); test: Displacement of [3H]citalopram from human SERT
[7] = molecular target: T3, Alpha-2C adrenergic receptor (Homo sapiens, UniProt P18825); test: Displacement of [125I]HEAT from adrenergic Alpha-2C receptor
T3 sequence (P18825 whole entry): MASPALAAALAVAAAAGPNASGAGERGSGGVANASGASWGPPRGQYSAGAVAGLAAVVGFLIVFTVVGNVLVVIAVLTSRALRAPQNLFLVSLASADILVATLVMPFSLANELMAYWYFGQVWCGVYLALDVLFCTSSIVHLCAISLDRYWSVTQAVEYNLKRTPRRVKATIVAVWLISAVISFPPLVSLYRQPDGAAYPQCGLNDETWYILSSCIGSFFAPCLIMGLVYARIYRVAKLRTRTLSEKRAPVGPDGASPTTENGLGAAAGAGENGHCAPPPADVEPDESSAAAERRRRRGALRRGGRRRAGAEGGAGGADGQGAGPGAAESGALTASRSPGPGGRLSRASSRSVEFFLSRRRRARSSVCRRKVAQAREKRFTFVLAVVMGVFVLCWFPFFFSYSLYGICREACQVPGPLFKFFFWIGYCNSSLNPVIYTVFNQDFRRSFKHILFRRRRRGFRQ

[8] = molecular target: T4, Alpha-2B adrenergic receptor (Homo sapiens, UniProt P18089); test: Displacement of [125I]HEAT from adrenergic alpha2B receptor
T4 sequence (P18089 whole entry): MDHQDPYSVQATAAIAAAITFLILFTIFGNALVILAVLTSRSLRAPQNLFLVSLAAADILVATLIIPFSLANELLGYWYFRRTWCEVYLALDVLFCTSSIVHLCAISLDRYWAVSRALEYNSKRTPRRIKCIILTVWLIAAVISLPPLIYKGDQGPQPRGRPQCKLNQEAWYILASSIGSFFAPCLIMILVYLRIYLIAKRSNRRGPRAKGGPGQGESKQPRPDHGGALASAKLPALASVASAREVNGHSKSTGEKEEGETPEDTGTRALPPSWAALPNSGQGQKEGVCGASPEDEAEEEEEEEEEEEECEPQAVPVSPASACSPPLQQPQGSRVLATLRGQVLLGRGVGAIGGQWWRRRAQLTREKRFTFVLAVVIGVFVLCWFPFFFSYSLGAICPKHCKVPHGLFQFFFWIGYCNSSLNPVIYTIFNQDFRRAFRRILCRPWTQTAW

[9] = molecular target: T5, Alpha-2A adrenergic receptor (Homo sapiens, UniProt P08913); test: Displacement of [125I]HEAT from adrenergic alpha2A receptor
T5 sequence (P08913 whole entry): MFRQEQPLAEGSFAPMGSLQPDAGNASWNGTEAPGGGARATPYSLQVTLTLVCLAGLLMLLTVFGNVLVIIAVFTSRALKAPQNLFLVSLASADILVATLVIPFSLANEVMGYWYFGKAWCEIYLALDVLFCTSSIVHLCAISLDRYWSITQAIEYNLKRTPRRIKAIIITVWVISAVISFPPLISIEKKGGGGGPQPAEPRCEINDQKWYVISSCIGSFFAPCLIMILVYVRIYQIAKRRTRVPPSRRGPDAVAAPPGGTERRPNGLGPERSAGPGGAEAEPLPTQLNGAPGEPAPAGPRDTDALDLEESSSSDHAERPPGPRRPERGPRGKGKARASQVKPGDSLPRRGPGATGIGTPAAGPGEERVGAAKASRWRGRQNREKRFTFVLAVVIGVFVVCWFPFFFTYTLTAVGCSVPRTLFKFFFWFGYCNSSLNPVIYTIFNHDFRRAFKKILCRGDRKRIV

Chain of Histamine H2 receptor (P25021 whole entry): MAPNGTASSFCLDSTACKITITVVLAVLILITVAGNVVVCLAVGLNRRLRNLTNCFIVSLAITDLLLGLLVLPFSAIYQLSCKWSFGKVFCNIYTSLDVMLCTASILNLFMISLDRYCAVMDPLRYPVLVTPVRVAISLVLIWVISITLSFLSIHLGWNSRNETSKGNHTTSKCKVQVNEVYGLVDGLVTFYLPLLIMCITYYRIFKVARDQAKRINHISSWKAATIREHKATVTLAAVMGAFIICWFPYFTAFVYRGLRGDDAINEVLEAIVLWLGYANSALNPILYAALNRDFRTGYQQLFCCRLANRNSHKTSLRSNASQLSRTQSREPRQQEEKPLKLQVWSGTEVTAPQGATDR
Chain of Sigma non-opioid intracellular receptor 1 (Q9R0C9 whole entry): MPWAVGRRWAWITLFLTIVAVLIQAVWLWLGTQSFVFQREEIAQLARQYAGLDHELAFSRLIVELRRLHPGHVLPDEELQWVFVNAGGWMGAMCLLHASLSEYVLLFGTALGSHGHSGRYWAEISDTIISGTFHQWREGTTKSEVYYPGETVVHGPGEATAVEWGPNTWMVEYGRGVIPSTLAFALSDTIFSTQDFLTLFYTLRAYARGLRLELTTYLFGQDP
Chain of Mu-type opioid receptor (P35372 whole entry): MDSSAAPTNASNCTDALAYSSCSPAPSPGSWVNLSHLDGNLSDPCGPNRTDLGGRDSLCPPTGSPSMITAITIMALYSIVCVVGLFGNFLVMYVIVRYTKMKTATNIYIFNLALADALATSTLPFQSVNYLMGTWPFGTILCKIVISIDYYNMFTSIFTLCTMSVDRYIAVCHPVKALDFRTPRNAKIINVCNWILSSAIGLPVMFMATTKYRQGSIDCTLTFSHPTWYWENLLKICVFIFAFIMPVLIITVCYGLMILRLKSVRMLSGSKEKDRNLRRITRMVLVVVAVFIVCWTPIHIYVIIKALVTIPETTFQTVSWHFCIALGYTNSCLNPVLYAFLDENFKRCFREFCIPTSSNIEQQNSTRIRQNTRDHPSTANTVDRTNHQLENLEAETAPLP
Chain of Sodium-dependent serotonin transporter (P31645 whole entry): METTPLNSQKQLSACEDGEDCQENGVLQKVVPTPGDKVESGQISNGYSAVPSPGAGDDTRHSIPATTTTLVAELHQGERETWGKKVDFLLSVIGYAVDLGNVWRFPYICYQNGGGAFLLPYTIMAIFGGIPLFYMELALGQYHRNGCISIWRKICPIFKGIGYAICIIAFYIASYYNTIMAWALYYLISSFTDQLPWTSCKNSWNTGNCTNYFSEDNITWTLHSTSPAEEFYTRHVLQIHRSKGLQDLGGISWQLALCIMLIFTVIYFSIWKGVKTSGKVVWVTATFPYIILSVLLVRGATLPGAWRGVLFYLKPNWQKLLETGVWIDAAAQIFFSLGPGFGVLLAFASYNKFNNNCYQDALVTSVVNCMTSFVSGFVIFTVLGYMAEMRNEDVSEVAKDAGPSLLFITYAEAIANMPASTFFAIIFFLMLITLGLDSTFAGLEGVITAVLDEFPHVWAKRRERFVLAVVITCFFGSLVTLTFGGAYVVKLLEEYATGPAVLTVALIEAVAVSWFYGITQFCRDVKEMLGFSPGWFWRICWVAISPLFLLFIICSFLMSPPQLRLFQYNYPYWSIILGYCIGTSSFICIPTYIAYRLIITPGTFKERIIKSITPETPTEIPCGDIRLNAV
Chain of Histamine H3 receptor (Q9Y5N1 whole entry): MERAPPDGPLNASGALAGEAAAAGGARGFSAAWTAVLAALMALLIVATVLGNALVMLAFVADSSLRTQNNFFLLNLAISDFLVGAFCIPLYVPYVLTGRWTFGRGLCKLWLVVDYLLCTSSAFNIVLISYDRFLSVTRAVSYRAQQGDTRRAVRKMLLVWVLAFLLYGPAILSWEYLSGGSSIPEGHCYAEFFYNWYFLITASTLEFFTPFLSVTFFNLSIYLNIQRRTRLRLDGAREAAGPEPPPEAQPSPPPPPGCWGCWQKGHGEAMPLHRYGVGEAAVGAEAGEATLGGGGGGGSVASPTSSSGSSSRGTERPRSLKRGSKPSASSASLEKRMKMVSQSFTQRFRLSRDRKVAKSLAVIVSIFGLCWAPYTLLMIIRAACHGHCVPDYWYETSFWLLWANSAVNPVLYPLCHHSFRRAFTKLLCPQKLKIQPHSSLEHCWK
Chain of Histamine H1 receptor (P35367 whole entry): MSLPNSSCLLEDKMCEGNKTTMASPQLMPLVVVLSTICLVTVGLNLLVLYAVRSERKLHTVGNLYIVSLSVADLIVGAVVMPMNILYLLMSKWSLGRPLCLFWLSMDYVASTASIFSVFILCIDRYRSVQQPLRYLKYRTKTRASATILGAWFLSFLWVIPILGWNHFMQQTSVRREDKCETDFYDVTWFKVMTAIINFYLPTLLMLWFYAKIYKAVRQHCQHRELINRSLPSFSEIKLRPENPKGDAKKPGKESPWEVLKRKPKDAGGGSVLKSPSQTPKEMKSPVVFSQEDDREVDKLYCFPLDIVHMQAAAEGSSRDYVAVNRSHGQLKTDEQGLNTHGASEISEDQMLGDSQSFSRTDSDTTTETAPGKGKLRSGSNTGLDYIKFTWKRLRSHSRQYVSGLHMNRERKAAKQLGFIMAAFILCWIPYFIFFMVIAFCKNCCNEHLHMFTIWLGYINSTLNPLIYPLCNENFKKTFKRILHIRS

SMILES	logD [1]	pKa ([2]; read-out: pKa)	Ki (Histamine H2 receptor)	Ki [3]	Ki (Mu-type opioid receptor)	Ki (Histamine H1 receptor)	Ki (D(4) dopamine receptor)	Ki (Histamine H3 receptor)	Ki [4]	Ki [5]	Ki [6]	Ki [7]	pKa [2]	Ki [8]	Ki [9]
[11CH3]NC(=O)C(CCN1CCC(O)(c2ccc(Cl)cc2)CC1)(c1ccccc1)c1ccccc1	2.6	7.96	–	–	–	–	–	–	–	–	–	–	–	–	–
CNC(=O)C(CCN1CCC(O)(c2ccc(Cl)cc2)CC1)(c1ccccc1)c1ccccc1	–	–	1.7 nM	9.9 nM	0.6 nM	4.2 nM	1.1 nM	9.3 nM	1.9 nM	0.8 nM	6.2 nM	2.4 nM	7.2	7 nM	1 nM
